From patent US20070190188A1, “Controlling Toxicity of Aminoquinoline Compounds” (The University of Mississippi, priority 2005, published 2007)

Experiments:
[1] = tested on: Mouse Liver Microsomes; experiment: In vitro formation of methemoglobinemic metabolites with mouse liver microsomes and human erythrocytes; type: cell-based; conditions: for formation of methemoglobenemic metabolites, Control / formation of methemoglobenemic metabolites, Azithromycin / formation of methemoglobenemic metabolites, Erythromycin / formation of methemoglobenemic metabolites, Microsomes: Mouse Liver Microsomes; for formation of methemoglobenemic metabolites, Control: macrolide alone, no 8-aminoquinoline; for formation of methemoglobenemic metabolites, Azithromycin: 8-aminoquinoline with Azithromycin; for formation of methemoglobenemic metabolites, Erythromycin: 8-aminoquinoline with Erythromycin; for formation of methemoglobenemic metabolites, Microsomes: no macrolide; for % methemoglobin formation, Mouse Liver Microsomes: drug 100 μM, microsomes equivalent to 25 pmoles cytochrome P450, Mean ± S.D. of four
Description: (§1) In one aspect of the present invention, an in vitro assay is developed for evaluation of biotransformation reactions leading to generation of methemoglobinemic metabolites of 8-aminoquinolines. This method uses simultaneous incubation of a test compound with the hepatic microsomes or Baculosomes® (microsomes prepared from insect cells infected with recombinant baculovirus containing a cDNA insert for a specific human P450 isozyme and NADPH-P450 reductase) and human erythrocytes followed by determination of methemoglobin formation. This allows the unstable metabolites generated in situ to react with the human erythrocytes.

[2] = tested on: pooled human liver microsomes; experiment: In vitro formation of methemoglobinemic metabolites with pooled human liver microsomes and human erythrocytes; type: cell-based; conditions: for formation of methemoglobenemic metabolites, Control: macrolide alone, no 8-aminoquinoline
Description: as §1

[3] = target: T1, CYP 2E1 (Homo sapiens, UniProt P05181); experiment: Methemoglobinemic metabolite formation with Baculosomes, CYP 2E1; type: cell-based; conditions: mean ± S.D. of four
T1 construct: purchased; host or cells: insect cells infected with recombinant baculovirus
Description: (§2) This method uses simultaneous incubation of a test compound with the hepatic microsomes or Baculosomes® (microsomes prepared from insect cells infected with recombinant baculovirus containing a cDNA insert for a specific human P450 isozyme and NADPH-P450 reductase) and human erythrocytes followed by determination of methemoglobin formation. This allows the unstable metabolites generated in situ to react with the human erythrocytes.

[4] = target: T2, CYP 1A2 (Homo sapiens, UniProt P05177); experiment: Methemoglobinemic metabolite formation with Baculosomes, CYP 1A2; type: cell-based; conditions: mean ± S.D. of four
T2 construct: purchased; host or cells: insect cells infected with recombinant baculovirus
T2 sequence (P05177 2-516 limits assumed): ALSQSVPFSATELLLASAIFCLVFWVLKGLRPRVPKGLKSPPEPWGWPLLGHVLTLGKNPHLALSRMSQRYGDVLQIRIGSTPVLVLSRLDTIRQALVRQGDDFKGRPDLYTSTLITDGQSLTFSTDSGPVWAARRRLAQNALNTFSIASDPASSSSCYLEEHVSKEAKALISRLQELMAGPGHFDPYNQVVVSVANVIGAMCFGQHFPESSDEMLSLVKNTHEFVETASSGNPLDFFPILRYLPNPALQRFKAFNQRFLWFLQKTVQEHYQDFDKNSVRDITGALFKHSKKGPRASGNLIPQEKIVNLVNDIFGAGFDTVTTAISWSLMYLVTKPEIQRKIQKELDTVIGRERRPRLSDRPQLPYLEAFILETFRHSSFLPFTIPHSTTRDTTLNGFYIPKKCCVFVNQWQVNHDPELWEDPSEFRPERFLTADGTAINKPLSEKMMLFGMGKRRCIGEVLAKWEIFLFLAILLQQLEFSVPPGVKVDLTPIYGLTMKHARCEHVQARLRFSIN
Description: as §2

[5] = target: T3, CYP 2C9 (Homo sapiens, UniProt P11712); experiment: Methemoglobinemic metabolite formation with Baculosomes, CYP 2C9; type: cell-based; conditions: mean ± S.D. of four
T3 construct: purchased; host or cells: insect cells infected with recombinant baculovirus
Description: as §2

[6] = target: T4, CYP 2D6 (Homo sapiens, UniProt P10635); experiment: Methemoglobinemic metabolite formation with Baculosomes, CYP 2D6; type: cell-based; conditions: mean ± S.D. of four
T4 construct: purchased; host or cells: insect cells infected with recombinant baculovirus
Description: as §2

[7] = target: T5, CPY 2B6 (Homo sapiens, UniProt P20813); experiment: Methemoglobinemic metabolite formation with Baculosomes, CYP 2B6; type: cell-based; conditions: mean ± S.D. of four
T5 construct: purchased; host or cells: insect cells infected with recombinant baculovirus
T5 sequence (P20813 1-491): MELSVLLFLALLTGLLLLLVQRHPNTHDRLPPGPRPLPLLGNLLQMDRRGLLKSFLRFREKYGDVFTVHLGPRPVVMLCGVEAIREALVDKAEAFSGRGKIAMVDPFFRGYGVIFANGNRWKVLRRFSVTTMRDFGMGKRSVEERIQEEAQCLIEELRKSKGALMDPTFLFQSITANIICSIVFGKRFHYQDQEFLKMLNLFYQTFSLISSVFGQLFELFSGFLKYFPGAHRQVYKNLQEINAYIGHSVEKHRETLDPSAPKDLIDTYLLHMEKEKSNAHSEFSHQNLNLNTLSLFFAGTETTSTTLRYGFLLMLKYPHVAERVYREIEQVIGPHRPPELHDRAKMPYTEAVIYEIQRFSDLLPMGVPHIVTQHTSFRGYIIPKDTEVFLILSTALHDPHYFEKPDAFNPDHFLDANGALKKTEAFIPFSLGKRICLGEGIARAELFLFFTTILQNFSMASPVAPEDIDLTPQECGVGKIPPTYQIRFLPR
Description: as §2

[8] = tested on: human erythrocytes; experiment: In vitro methemoglobin formation, human erythrocytes, control without microsomes; type: cell-based; conditions: for % methemoglobin formed, Supersomes None: no Baculosomes, mean ± S.D. of four; for % methemoglobin formation, Control: no microsomes, drug 100 μM, Mean ± S.D. of four observations
Description: as §1

[9] = target: T6, CYP 2A6 (Homo sapiens, UniProt P11509); experiment: Methemoglobinemic metabolite formation with Baculosomes, CYP 2A6; type: cell-based; conditions: mean ± S.D. of four
T6 construct: purchased; host or cells: insect cells infected with recombinant baculovirus
T6 sequence (P11509 1-494): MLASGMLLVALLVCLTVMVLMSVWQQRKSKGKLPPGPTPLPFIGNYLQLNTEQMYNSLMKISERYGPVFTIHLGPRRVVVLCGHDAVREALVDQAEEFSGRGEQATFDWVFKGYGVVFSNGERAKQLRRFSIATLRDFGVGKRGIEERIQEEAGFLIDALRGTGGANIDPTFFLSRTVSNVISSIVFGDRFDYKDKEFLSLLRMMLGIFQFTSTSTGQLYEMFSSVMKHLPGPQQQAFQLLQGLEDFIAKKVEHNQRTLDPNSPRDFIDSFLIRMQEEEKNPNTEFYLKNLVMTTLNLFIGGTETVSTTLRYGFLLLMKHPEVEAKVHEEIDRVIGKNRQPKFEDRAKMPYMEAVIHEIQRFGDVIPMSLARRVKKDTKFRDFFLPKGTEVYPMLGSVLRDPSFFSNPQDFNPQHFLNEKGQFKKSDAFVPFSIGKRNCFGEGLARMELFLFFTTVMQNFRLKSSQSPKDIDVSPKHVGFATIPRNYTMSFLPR
Description: as §2

[10] = target: T7, CYP 2C19 (Homo sapiens, UniProt P33261); experiment: Methemoglobinemic metabolite formation with Baculosomes, CYP 2C19; type: cell-based; conditions: mean ± S.D. of four
T7 construct: purchased; host or cells: insect cells infected with recombinant baculovirus
Description: as §2

[11] = target: T8, CYP 3A4 (Homo sapiens, UniProt P08684); experiment: Methemoglobinemic metabolite formation with Baculosomes, CYP 3A4; type: cell-based
T8 construct: purchased; host or cells: insect cells infected with recombinant baculovirus
Description: as §1

[12] = target: T9, CYP 2C8 (Homo sapiens, UniProt P10632); experiment: Methemoglobinemic metabolite formation with Baculosomes, CYP 2C8; type: cell-based; conditions: mean ± S.D. of four
T9 construct: purchased; host or cells: insect cells infected with recombinant baculovirus
T9 sequence (P10632 1-490): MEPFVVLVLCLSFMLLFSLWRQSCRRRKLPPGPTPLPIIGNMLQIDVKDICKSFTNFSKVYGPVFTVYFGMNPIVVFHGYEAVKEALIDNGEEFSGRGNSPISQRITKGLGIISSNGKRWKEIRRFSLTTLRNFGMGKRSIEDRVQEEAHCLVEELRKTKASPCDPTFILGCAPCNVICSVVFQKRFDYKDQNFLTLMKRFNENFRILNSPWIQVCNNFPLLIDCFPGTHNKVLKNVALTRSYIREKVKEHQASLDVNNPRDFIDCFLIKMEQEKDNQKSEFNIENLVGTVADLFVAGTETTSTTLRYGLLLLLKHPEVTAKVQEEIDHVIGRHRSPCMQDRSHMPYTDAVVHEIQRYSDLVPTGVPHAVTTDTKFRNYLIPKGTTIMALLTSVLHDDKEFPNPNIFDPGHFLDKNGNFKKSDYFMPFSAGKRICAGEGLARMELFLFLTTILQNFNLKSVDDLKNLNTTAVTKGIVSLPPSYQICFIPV
Description: as §1

[13] = tested on: Plasmodium berghei; experiment: In vivo antimalarial evaluation in Plasmodium berghei-mouse malaria model; conditions: TAO i.p. 50 mg/kg × 3 once daily alone; for (%) Parasitemia: mean in brackets
Text: One concern with this method of controlling 8-aminoquinoline toxicity is that the inhibition metabolism of the drug may impair its antiparasitic efficacy. […] Thus treatment of the individuals with NPC1161B along with an inhibitor of CYP3A4 should not compromise the therapeutic efficiency of NPC1161B.

T8 sequence (P08684 2-503 limits assumed): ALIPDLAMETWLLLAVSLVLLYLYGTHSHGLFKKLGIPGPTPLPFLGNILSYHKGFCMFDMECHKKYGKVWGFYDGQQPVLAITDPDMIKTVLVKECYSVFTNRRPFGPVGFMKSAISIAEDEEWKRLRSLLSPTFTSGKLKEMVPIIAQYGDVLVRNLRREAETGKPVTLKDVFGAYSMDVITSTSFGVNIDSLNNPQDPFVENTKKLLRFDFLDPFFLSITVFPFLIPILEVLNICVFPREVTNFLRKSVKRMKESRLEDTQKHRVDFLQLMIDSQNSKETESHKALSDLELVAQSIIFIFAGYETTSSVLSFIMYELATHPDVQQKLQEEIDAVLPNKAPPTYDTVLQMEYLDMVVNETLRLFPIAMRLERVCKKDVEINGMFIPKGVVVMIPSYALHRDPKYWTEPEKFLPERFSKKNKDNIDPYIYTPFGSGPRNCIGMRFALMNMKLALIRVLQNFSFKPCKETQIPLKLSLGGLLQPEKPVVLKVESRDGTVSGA
T4 sequence (P10635 whole entry): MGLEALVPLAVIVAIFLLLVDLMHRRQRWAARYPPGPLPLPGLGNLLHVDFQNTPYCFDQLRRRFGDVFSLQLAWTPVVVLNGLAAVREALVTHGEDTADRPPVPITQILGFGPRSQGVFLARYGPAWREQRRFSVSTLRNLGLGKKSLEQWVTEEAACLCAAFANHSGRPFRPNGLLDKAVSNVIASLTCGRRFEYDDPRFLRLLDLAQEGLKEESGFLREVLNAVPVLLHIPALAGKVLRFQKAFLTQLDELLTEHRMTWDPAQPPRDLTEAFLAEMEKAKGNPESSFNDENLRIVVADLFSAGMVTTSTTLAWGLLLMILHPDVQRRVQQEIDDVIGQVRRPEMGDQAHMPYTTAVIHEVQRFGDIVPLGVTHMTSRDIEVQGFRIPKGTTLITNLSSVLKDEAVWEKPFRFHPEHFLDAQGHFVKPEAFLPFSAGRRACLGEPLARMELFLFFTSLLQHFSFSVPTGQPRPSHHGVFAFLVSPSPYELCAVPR
T7 sequence (P33261 whole entry): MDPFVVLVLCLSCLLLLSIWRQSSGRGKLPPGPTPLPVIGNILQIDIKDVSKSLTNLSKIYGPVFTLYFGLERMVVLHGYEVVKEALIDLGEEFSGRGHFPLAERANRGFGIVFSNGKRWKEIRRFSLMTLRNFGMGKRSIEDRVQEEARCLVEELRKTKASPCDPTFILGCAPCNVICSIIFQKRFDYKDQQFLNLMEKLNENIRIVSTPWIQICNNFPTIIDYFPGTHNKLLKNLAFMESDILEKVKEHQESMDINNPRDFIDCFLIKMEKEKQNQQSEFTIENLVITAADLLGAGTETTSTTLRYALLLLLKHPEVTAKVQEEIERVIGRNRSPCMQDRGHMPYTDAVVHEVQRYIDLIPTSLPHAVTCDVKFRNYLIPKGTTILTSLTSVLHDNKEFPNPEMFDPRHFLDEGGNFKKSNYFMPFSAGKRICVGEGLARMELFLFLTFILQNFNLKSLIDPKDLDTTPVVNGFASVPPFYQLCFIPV
T3 sequence (P11712 whole entry): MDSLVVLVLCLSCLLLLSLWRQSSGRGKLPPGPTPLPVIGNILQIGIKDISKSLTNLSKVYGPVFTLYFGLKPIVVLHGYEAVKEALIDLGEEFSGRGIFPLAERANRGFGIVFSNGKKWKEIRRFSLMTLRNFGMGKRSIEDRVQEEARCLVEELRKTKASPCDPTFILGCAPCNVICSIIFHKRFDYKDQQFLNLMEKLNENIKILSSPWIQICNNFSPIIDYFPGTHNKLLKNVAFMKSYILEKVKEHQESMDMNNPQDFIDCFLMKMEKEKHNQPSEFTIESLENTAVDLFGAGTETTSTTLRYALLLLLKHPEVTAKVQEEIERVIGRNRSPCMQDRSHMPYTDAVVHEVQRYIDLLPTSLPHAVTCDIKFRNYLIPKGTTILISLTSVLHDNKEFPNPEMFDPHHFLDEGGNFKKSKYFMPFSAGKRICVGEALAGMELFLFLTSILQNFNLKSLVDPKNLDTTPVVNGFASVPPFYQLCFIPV
T1 sequence (P05181 whole entry): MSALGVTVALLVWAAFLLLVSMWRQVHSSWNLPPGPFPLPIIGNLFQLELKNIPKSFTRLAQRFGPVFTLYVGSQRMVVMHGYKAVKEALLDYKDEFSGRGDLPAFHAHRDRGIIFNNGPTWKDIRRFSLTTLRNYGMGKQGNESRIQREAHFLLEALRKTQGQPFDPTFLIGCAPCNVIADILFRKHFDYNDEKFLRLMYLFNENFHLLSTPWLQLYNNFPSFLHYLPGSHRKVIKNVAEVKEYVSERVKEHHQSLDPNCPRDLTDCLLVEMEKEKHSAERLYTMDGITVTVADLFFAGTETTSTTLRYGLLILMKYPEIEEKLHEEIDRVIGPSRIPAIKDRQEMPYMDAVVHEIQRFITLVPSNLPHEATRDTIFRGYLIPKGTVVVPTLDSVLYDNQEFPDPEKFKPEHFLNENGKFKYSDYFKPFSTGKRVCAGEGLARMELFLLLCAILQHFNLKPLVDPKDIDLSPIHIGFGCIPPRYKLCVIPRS

CC[C@H]1OC(=O)[C@H](C)[C@@H](O[C@H]2C[C@@](C)(OC)[C@@H](O)[C@H](C)O2)[C@H](C)[C@@H](O[C@@H]2O[C@H](C)C[C@H](N(C)C)[C@H]2O)[C@](C)(O)C[C@@H](C)CN(C)[C@H](C)[C@@H](O)[C@]1(C)O [Azithromycin, reference compound]
formation of methemoglobenemic metabolites, Control [1]: 6.598 ± 0.505 | formation of methemoglobenemic metabolites, Control ([2]; pooled human Liver Microsomes): 0

CC[C@H]1OC(=O)[C@H](C)[C@@H](O[C@H]2C[C@@](C)(OC)[C@@H](O)[C@H](C)O2)[C@H](C)[C@@H](O[C@@H]2O[C@H](C)C[C@H](N(C)C)[C@H]2O)[C@](C)(O)C[C@@H](C)C(=O)[C@H](C)[C@@H](O)[C@]1(C)O [Erythromycin, erythromycin, reference compound]
formation of methemoglobenemic metabolites, Control [1]: 6.230 ± 1.009 | formation of methemoglobenemic metabolites, Control ([2]; pooled human Liver Microsomes): 0

COc1cc(N[C@@H](C)CCCN)c2nccc(C)c2c1Oc1ccc(Cl)c(Cl)c1 [NPC1161A]
% methemoglobin formed, CYP 2E1 [3]: 8.703 ± 0.956% | % methemoglobin formed, CYP 1A2 [4]: 2.060 ± 0.185% | % methemoglobin formed, CYP 2C9 [5]: 0.070 ± 0.130% | formation of methemoglobenemic metabolites, Azithromycin [1]: 10.850 ± 2.134 | formation of methemoglobenemic metabolites, Erythromycin [1]: 9.375 ± 0.686 | formation of methemoglobenemic metabolites, Microsomes [1]: 17.790 ± 1.460 | % methemoglobin formation, Mouse Liver Microsomes [1]: 17.790 ± 1.460% | % methemoglobin formed, CYP 2D6 [6]: 17.200 ± 1.088% | % methemoglobin formed, CPY 2B6 [7]: 5.465 ± 0.625% | % methemoglobin formed, Supersomes None [8]: 2.138 ± 0.624% | % methemoglobin formation, Control [8]: 2.138 ± 0.624% | % methemoglobin formed, CYP 2A6 [9]: 2.775 ± 0.175% | % methemoglobin formed, CYP 2C19 [10]: 1.733 ± 0.327% | % methemoglobin formed, Cimetidine ([11]; 3A4 Baculosomes, 8-aminoquinoline 100 μM with Cimetidine 100 μM): 11.905 ± 1.420% | % methemoglobin formed, Erythromycin ([11]; 3A4 Baculosomes, 8-aminoquinoline 100 μM with Erythromycin 100 μM): 15.288 ± 2.359% | % methemoglobin formed, Ketoconazole ([11]; 3A4 Baculosomes, 8-aminoquinoline 100 μM with Ketoconazole 100 μM): 19.010 ± 0.870% | % methemoglobin formed, Troleandomycin ([11]; 3A4 Baculosomes, 8-aminoquinoline 100 μM with Troleandomycin 100 μM): 16.743 ± 1.401% | % methemoglobin formed, inhibitor None ([11]; 3A4 Baculosomes, 8-aminoquinoline 100 μM, no inhibitor): 20.925 ± 0.502% | % methemoglobin formed, CYP 3A4 ([11]; Baculosomes, mean ± S.D. of four): 15.320 ± 0.504% | methemoglobin toxicity generated by CYP 3A4, comparison among the three 8-aminoquinolines ([11]; FIG. 5): almost similar methemoglobin toxicity | % methemoglobin formation, Pooled Human liver Microsomes ([2]; drug 100 μM, microsomes equivalent to 25 pmoles cytochrome P450, Mean ± S.D. of four): 12.510 ± 1.890% | formation of methemoglobenemic metabolites, Azithromycin ([2]; pooled human Liver Microsomes, 8-aminoquinoline with Azithromycin): 10.595 ± 0.842 | formation of methemoglobenemic metabolites, Erythromycin ([2]; pooled human Liver Microsomes, 8-aminoquinoline with Erythromycin): 6.720 ± 1.011 | formation of methemoglobenemic metabolites, Microsomes ([2]; pooled human Liver Microsomes, no macrolide): 12.860 ± 1.994 | % methemoglobin formed, CYP 2C8 [12]: 1.893 ± 0.275%

COc1cc(NC(C)CCCN)c2ncccc2c1 (stereo not shown) [Primaquine, primaquine, reference compound]
formation of methemoglobenemic metabolites, Azithromycin [1]: 11.800 ± 2.862 | formation of methemoglobenemic metabolites, Erythromycin [1]: 23.770 ± 5.826 | formation of methemoglobenemic metabolites, Microsomes [1]: 36.660 ± 2.612 | % methemoglobin formation, Mouse Liver Microsomes [1]: 36.660 ± 2.612% | % methemoglobin formed, Supersomes None [8]: 1.465 ± 0.183% | % methemoglobin formation, Control [8]: 1.465 ± 0.414%

CO[C@H]1C[C@H](O[C@H]2[C@H](C)[C@@H](O[C@@H]3O[C@H](C)C[C@H](N(C)C)[C@H]3OC(C)=O)[C@@H](C)C[C@@]3(CO3)C(=O)[C@H](C)[C@@H](OC(C)=O)[C@@H](C)[C@@H](C)OC(=O)[C@@H]2C)O[C@@H](C)[C@@H]1OC(C)=O [Troleandomycin, troleandomycin, reference compound]
MST [13]: 15 days | (%) Parasitemia ([13]; day 7 p.i.): 13.3/18.3/25.5/16.5/13.1 (17.3) % | (%) Parasitemia ([13]; day 10 p.i.): 22.7/34.5/32.0/32.1/24.3 (29.1) % | (%) Parasitemia ([13]; day 14 p.i.): 31.5/41.5/28.5/49.3/49.3 (40.0) % | deaths ([13]; number of deaths/day): 5/15
